Measured values taken from patent US8258138B2, “Potassium channel blockers” (Xention Limited, priority 2008, dated 2012).

What was measured:
human Kv1.3 = biological target: T1, human Kv1.3 (Homo sapiens, UniProt P22001); assay: Kv1.3 Autopatch electrophysiology (whole cell patch-clamp, inhibition of charge movement); type: cell-based; details: compound at 1 μM; cells stably transfected with human Kv1.3; room temperature; total charge during step to +30 mV relative to control; read-out: hKv1.3 % inh.
T1 construct: expressed in transfected cells; host or cells: stably transfected cells grown in medium for CHO cells
T1 sequence (P22001 whole entry): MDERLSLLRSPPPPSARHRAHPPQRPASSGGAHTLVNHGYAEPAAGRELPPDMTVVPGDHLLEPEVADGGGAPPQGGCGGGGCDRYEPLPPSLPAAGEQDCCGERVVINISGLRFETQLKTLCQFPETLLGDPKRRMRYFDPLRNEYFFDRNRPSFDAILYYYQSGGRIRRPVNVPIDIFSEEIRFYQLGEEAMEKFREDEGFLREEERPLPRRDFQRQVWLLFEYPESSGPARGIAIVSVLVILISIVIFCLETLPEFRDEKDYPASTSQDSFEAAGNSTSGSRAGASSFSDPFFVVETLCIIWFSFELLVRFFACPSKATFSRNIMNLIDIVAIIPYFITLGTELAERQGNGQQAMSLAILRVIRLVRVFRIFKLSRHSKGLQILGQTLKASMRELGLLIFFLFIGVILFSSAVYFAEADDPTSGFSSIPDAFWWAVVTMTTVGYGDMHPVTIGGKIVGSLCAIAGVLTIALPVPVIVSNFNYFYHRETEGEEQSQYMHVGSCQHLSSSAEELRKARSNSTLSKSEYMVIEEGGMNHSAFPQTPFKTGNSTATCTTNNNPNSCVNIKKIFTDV
Procedure: Kv1.3 Autopatch Electrophysiology Method
Compounds were tested on these cells using the AutoPatch technology in whole cell mode.
The external bathing solution contained (in mM): 150 NaCl, 10 KCl, 1 MgCl2, 3 CaCl2, 10 HEPES, pH 7.4 with NaOH. Patch pipettes were filled with an electrode solution of composition (in mM): 100 K-Gluconate, 20 KCl, 1 MgCl2, 1 CaCl2, 10 HEPES, 11 EGTA, 5 ATP-Na2, 2 Glutathione pH 7.2 with KOH.
Compounds were dissolved in DMSO (100%) and made up in the external bather at a concentration of 1 μM immediately prior to use. All experiments were conducted at room temperature.
A cell suspension (10 ml), with a density of 6×10^6 cells, was aliquoted into a 15 ml centrifuge tube and stored at 4° C. before use. Prior to use a tube was taken and centrifuged at 1000 rpm for 4 mins at room temperature. The supernatant was then discarded, leaving a cell pellet at the bottom of the tube. The pellet was then resuspended using 1 ml of cold (4° C.), filtered (0.22 μm), 0.05% BSA/bather solution (0.05 g BSA/100 ml bather). The bottom of the tube was manually agitated followed by gentle tituration. The cell suspension was then placed in the AutoPatch™ temperature controlled cell-hotel at 14° C. and regularly titurated.
A length of Teflon capillary tubing was dipped into the cell suspension solution, and a column of fluid was taken up by negative pressure. The column of fluid was in electrically connectivity with a Ag/AgCl reference electrode. Borosilicate glass patch pipettes (from 1.5 mm OD, thin-walled filamented, GC150-TF capillary glass, Harvard) were pulled using a DMZ pipette puller (Zeitz Instruments), and were back-filled using the internal pipette solution, being careful that no bubbles remained at the tip or in the body of the pipette. Patch pipettes typically had resistances of 2.5-3.5 MΩ. Once filled, the pipette tip and a proportion of the shaft (˜15 mm) were dipped into Sigmacote (Sigma). The recording pipettes were placed in a multiwell array and mounted on the AutoPatch™ machine. Automated patch-clamping and drug-application was initiated by the operator, but thereafter AutoPatch.exe continued the experiment providing that pre-set conditions and criteria were satisfied.
Whole cell patch-clamp recordings were made using the AutoPatch™ rig, which incorporated an EPC9 or EPC10 amplifier (HEKA, Germany) under control of Pulse software (v8.54 or v8.76, HEKA, Germany), a cell applicator, automated drug application system (DAS), valve controller (VF1) and a suction device all at room temperature. This equipment was completely under the control of AutoPatch.exe and operator intervention was only made when there was a requirement to refill the bather reservoirs or to prevent the loss of a cell due to a technical error.
Cells were continuously perfused with external solution at a flow rate of ˜2 ml/minute.
Electrophysiology voltage-step protocols and analysis of data was performed as follows. Data were sampled at 5 kHz, and filtered with a −3 dB bandwidth of 2.5 kHz. Cells were held at a voltage of −80 mV. Currents were evoked by a voltage step to +30 mV for 500 ms in duration applied every 15 s. Online analysis of the hKv1.3 current during the application of compounds was performed by the Pulse (v8.54 or v8.76, HEKA, Germany), Excel (Microsoft, USA) and AutoPatch™ software, with the total charge measured during the whole of voltage step. Inhibition of charge movement in the presence of drug was calculated relative to control.

hKv1.5 = hKv1.5 (Homo sapiens, UniProt P22460); assay: Kv1.5 Autopatch electrophysiology (whole cell patch-clamp); type: cell-based; details: compound at 1 μM; room temperature (22-24° C.); total charge during step to 0 mV; read-out: hKv1.5 % inh.
hKv1.5, sequence (P22460 whole entry): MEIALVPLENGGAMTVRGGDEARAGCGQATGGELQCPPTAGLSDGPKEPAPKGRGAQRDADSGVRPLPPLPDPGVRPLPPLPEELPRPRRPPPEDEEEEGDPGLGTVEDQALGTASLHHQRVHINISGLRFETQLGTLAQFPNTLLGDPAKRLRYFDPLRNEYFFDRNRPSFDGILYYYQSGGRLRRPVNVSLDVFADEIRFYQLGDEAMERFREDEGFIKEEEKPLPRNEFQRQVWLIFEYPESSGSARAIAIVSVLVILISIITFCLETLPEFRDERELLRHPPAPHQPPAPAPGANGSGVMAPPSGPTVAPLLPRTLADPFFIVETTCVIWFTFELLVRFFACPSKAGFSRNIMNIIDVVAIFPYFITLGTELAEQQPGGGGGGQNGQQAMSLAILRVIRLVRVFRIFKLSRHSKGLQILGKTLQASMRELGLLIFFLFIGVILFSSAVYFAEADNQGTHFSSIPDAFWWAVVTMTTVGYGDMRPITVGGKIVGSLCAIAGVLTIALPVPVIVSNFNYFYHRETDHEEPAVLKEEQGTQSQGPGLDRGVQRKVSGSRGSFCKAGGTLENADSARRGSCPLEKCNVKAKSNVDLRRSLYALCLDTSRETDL
Procedure: Kv1.5 Autopatch Electrophysiology Method
The external bathing solution contained (in mM): 150 NaCl, 10 KCl, […], 3 MgCl2, 1 CaCl2, 10 HEPES, pH 7.4. Patch pipettes were filled with an electrode solution of composition (in mM): 160 KCl, 0.5 MgCl2, 10 HEPES, 1 EGTA, pH 7.4 with KOH.
Compounds were dissolved in DMSO (100%) and made up in the external bather at a concentration of 1 μM. All experiments were conducted at room temperature (22-24° C.).
A cell suspension (10 ml), with a density of 100,000 cells/ml, was aliquoted into a 15 ml centrifuge tube and transferred to an incubator (37° C., 5% CO2) for approximately one hour before use. Following 60 min incubation, a tube was taken and centrifuged at 1000 rpm for 4 mins at room temperature. 9.5 ml supernatant was thence discarded, leaving a cell pellet at the bottom of the tube. The pellet was then resuspended using 100 μl of cold (4° C.), filtered (0.22 μm), 0.2% BSA/bather solution (0.02 g BSA/10 ml bather). The bottom of the tube was manually agitated gently until the solution became cloudy with cells. The 100 μl cell resuspension solution was then stored on the bench at 4° C. (using a Peltier-based temperature control device) until used.
A length of capillary glass (1B150F-4, WPI) was dipped into the cell suspension solution, such that ˜3 cm column of fluid was taken up by capillary action. A Ag/AgCl wire was dropped into the non-dipped end of the capillary also. The outside of the solution-filled end of the capillary was then dried and the capillary was loaded into the AutoPatch™.
Borosilicate glass patch pipettes (from 1.5 mm OD, thin-walled filamented, GC150-TF capillary glass, Harvard) were pulled using a DMZ pipette puller (Zeitz Instruments), and were back-filled using the internal pipette solution, being careful that no bubbles remain at the tip or in the body of the pipette. Patch pipettes typically had resistances of 2.3-3.5 MΩ. Once filled, the pipette tip and a proportion of the shaft (˜15 mm) were dipped into Sigmacote (Sigma). The recording pipette was then loaded into the AutoPatch™ Automated patch-clamping was initiated by the operator, but thereafter AutoPatch.exe continued the experiment providing that pre-set conditions and criteria were satisfied.
Whole cell patch-clamp recordings were made using the AutoPatch™ rig, which incorporated an EPC9 amplifier (HEKA, Germany) under control of Pulse software (v8.54, HEKA, Germany), a motion controller with 2 translators (Newport, UK), valve controller (VF1) and a c-level suction device all at room temperature (22-24° C.). This equipment was completely under the control of AutoPatch.exe and operator intervention was only made when there was a requirement to refill the drug reservoirs or to prevent the loss of a cell due to a technical error. Cells with an Rseries greater than 18 MΩ were discounted from the experiment.
Qualification stages prior to perfusion and drug application ensured that the observed current met the criteria for the experiment. Only those cells with an IK>500 pA were used for experiments. Cells were continuously perfused with external solution at a flow rate of 1.8-2 ml/minute. […] Online analysis of the hKv1.5 current during the application of compounds was performed by the AutoPatch™ software. Voltage-step protocols and analysis of data was performed as described for conventional electrophysiology.
Electrophysiology voltage-step protocols and analysis of data was performed as follows. Data was sampled at 5 kHz, and filtered with a −3 dB bandwidth of 2.5 kHz. Cells were held at a voltage of −80 mV. Currents were evoked to a voltage step for 1000 ms in duration at 0 mV every 5 s. Currents were analysed using Pulsefit software (v8.54, HEKA, Germany), with the total charge measured during the whole of the voltage step. All other plots were produced using Igor Pro (WaveMetrics).

inhibition at 1 µM (human Kv1.3)	inhibition at 1 µM (hKv1.5)	SMILES
67%	43.4%	Cn1cnc(S(=O)(=O)N(Cc2cccc(Cl)c2)c2ccc(C(=O)N3CCCCC3)cc2)c1 [Example 93, 1-Methyl-1H-imidazole-4-sulfonic acid (3-chloro-benzyl)-[4-(piperidine-1-carbonyl)-phenyl]-amide]
55%	69%	Cn1cnc(S(=O)(=O)N(Cc2ccc(F)cc2)c2ccc(C(=O)N3CCOC(c4ccccc4)C3)cc2)c1 (centres unmarked) [Example 66, 1-Methyl-1H-imidazole-4-sulfonic acid (4-fluoro-benzyl)-[4-(2-phenyl-morpholine-4-carbonyl)-phenyl]-amide]
92%	89.6%	COc1cc(N(Cc2ccccc2)S(=O)(=O)c2ccccc2)ccc1C(=O)N1CCN(c2ccccc2)CC1 [Example 54, N-Benzyl-N-[3-methoxy-4-(4-phenyl-piperazine-1-carbonyl)-phenyl]-benzenesulfonamide]
89%	67.5%	Cn1cnc(S(=O)(=O)N(Cc2ccc(Cl)cc2)c2ccc(C(=O)N3CCCC(c4ccccc4)C3)cc2)c1 (centres unmarked) [Example 61, 1-Methyl-1H-imidazole-4-sulfonic acid (4-chloro-benzyl)-[4-(3-phenyl-piperidine-1-carbonyl)-phenyl]-amide]
42%	93.8%	O=C(c1ccc(N(Cc2ccccc2)S(=O)(=O)c2ccccc2)c(F)c1)N1CCN(c2ccccc2)CC1 [Example 53, N-Benzyl-N-[2-fluoro-4-(4-phenyl-piperazine-1-carbonyl)-phenyl]-benzenesulfonamide]

Second part, the compound before the results:

SMILES	inhibition at 1 µM (human Kv1.3)	inhibition at 1 µM (hKv1.5)
COc1ccc(S(=O)(=O)N(Cc2ccccc2)c2ccc(C(=O)N3CCN(c4ccccc4)CC3)cc2)cc1OC [Example 14, N-Benzyl-3,4-dimethoxy-N-[4-(4-phenyl-piperazine-1-carbonyl)-phenyl]-benzenesulfonamide]	69%	61.3%
Cc1cc(N(Cc2ccccc2)S(=O)(=O)c2ccccc2)ccc1C(=O)N1CCN(c2ccccc2)CC1 [Example 52, N-Benzyl-N-[3-methyl-4-(4-phenyl-piperazine-1-carbonyl)-phenyl]-benzenesulfonamide]	67%	93.6%
O=C(c1ccc(N(Cc2ccccc2)S(=O)(=O)c2cccc(F)c2)cc1)N1CCN(c2ccccc2)CC1 [Example 21, N-Benzyl-3-fluoro-N-[4-(4-phenyl-piperazine-1-carbonyl)-phenyl]-benzenesulfonamide]	70%	70.9%
O=C(c1ccc(N(Cc2cccc(Cl)c2)S(=O)(=O)c2ccccc2)cc1)N1CCN(c2ccccc2)CC1 [Example 11, N-(3-Chloro-benzyl)-N-[4-(4-phenyl-piperazine-1-carbonyl)-phenyl]-benzenesulfonamide]	92%	73.6%
Cn1cnc(S(=O)(=O)N(Cc2ccccc2)c2ccc(C(=O)N3CCN(c4ccccc4)CC3)cc2)c1 [Example 25, 1-Methyl-1H-imidazole-4-sulfonic acid benzyl-[4-(4-phenyl-piperazine-1-carbonyl)-phenyl]-amide]	68%	58.8%
O=C(c1ccc(N(Cc2ccccc2)S(=O)(=O)c2ccc(F)cc2)cc1)N1CCN(c2ccccc2)CC1 [Example 19, N-Benzyl-4-fluoro-N-[4-(4-phenyl-piperazine-1-carbonyl)-phenyl]-benzenesulfonamide]	83%	54.6%
O=C(c1ccc(N(Cc2ccccc2)S(=O)(=O)c2cc(Cl)cc(Cl)c2)cc1)N1CCN(c2ccccc2)CC1 [Example 29, N-Benzyl-3,5-dichloro-N-[4-(4-phenyl-piperazine-1-carbonyl)-phenyl]-benzenesulfonamide]	70%	75.3%
COc1cccc(CN(c2ccc(C(=O)N3CCN(c4ccccc4)CC3)cc2)S(=O)(=O)c2ccccc2)c1 [Example 33, N-(3-Methoxy-benzyl)-N-[4-(4-phenyl-piperazine-1-carbonyl)-phenyl]-benzenesulfonamide]	56%	55.7%
